# Test results as given in ChEMBL document CHEMBL5506004, “Optimizing drug-like properties of selective butyrylcholinesterase inhibitors for cognitive improvement: Enhancing aqueous solubility by disrupting molecular plane” (Eur J Med Chem, 2024).
# Activity calls are given as the source filed them. The rule behind the calls is not given here.
# How the values were obtained:
# [1] = test system: Mus musculus; experiment: Cognitive enhancing effect in Amyloid beta (1 to 42)-treated ICR mouse assessed as reduction in trajectory uncertainty at 10 mg/kg, po administered daily measured after 7 to 12 days by Morris water maze test; type: functional, organism-based; conditions: time 7-12 day
# [2] = Ratio of AUC (0 to t) in brain to plasma in ICR mouse at 10 mg/kg, po measured for 10 to 480 mins by spectroscopy; type: ADME, organism-based; conditions: time 10-480 min
# [3] = MRT (infinity) in Sprague-Dawley rat at 10 mg/kg, iv measured for 1 to 1440 mins by LC-MS/MS analysis; type: ADME, organism-based; conditions: in vivo, time 1-1440 min
# [4] = target: Cholinesterase (Homo sapiens, UniProt P06276); experiment: Non-competitive inhibition of human BChE
# [5] = AUC (0 to t) in plasma of ICR mouse at 10 mg/kg, po measured for 10 to 480 mins by spectroscopy; type: ADME, organism-based; conditions: time 10-480 min
# [6] = AUC (0 to t) in Sprague-Dawley rat at 10 mg/kg, iv measured for 1 to 1440 mins by LC-MS/MS analysis; type: ADME, organism-based; conditions: in vivo, time 1-1440 min
# [7] = Solubility of compound in FaSSIF incubated for 24 hrs by HPLC analysis; type: ADME
# [8] = Metabolic stability in human liver microsomes assessed as compound metabolism at 2 uM measured for 60 mins by LC-MS/MS analysis; type: ADME, Microsome; conditions: read-out: Drug metabolism
# [9] = AUC (0 to infinity) in Sprague-Dawley rat at 10 mg/kg, iv measured for 1 to 1440 mins by LC-MS/MS analysis; type: ADME, organism-based; conditions: in vivo, time 1-1440 min
# [10] = Permeability of compound at 50 ug/ml incubated for 18 hrs by PAMPA; type: ADME; conditions: dose 50 µg/ml, read-out: permeability
# [11] = AUC (0 to infinity) in Sprague-Dawley rat at 10 mg/kg, po measured for 1 to 1440 mins by LC-MS/MS analysis; type: ADME, organism-based; conditions: in vivo, time 1-1440 min
# [12] = AUC (0 to t) in brain of ICR mouse at 10 mg/kg, po measured for 10 to 480 mins by spectroscopy; type: ADME, organism-based; conditions: time 10-480 min
# [13] = Ratio of Cmax in brain to plasma in ICR mouse at 10 mg/kg, po measured for 10 to 480 mins by spectroscopy; type: ADME, organism-based; conditions: time 10-480 min
# [14] = test system: SH-SY5Y; experiment: Neuroprotective activity against amyloid beta (1 to 42)-induced neuronal death in human SH-SY5Y cells assessed as cell viability pretreated for 1 hr followed by amyloid beta (1 to 42) addition measured after 24 hrs by MTT assay; type: functional, cell-based; conditions: dose 1-10 µM, time 25.0 hrs
# [15] = AUC (0 to t) in Sprague-Dawley rat at 10 mg/kg, po measured for 1 to 1440 mins by LC-MS/MS analysis; type: ADME, organism-based; conditions: in vivo, time 1-1440 min
# [16] = test system: BV-2; experiment: Cytotoxicity against mouse BV-2 cells assessed as survival rate at 100 uM incubated for 24 hrs by MTT assay relative to control; type: functional; conditions: read-out: Survival
# [17] = Acute toxicity in ICR mouse assessed as animal death at 1 g/kg, IG; conditions: in vivo, po, 1000 mg/kg
# [18] = Tmax in Sprague-Dawley rat at 10 mg/kg, po measured for 1 to 1440 mins by LC-MS/MS analysis; type: ADME, organism-based; conditions: in vivo, time 1-1440 min
# [19] = Cmax in brain of ICR mouse at 10 mg/kg, po measured for 10 to 480 mins by spectroscopy; type: ADME, organism-based; conditions: time 10-480 min
# [20] = target: Amyloid-beta precursor protein (Mus musculus) (UniProt P12023); experiment: In vivo inhibition of Amyloid beta (1 to 42) self-aggregation in brain of Amyloid beta (1 to 42)-treated ICR mouse at 10 mg/kg, po administered daily for 12 days; type: functional, organism-based; conditions: time 12.0 day
# [21] = Cytotoxicity against human L02 cells assessed as survival rate at 100 uM incubated for 24 hrs by MTT assay relative to control; type: toxicity, cell-based; conditions: read-out: Survival
# [22] = Toxicity in Amyloid beta (1 to 42)-treated ICR mouse assessed as drug tolerance at 10 mg/kg, po administered daily for 12 days; type: organism-based; conditions: in vivo, 288 h, time 12 day
# [23] = test system: HT-22; experiment: Cytotoxicity against mouse HT-22 cells assessed as survival rate at 100 uM incubated for 24 hrs by MTT assay relative to control; type: functional; conditions: read-out: Survival
# [24] = test system: Mus musculus; experiment: Cognitive enhancing effect in Amyloid beta (1 to 42)-treated ICR mouse assessed as shorter arrival time at 10 mg/kg, po administered daily measured after 7 to 12 days by Morris water maze test; type: functional, organism-based; conditions: time 7-12 day
# [25] = Half life in Sprague-Dawley rat at 10 mg/kg, po measured for 1 to 1440 mins by LC-MS/MS analysis; type: ADME, organism-based; conditions: in vivo, time 1-1440 min
# [26] = Acute toxicity in ICR mouse assessed as animal growth at 1 g/kg, IG; conditions: in vivo, po, 1000 mg/kg
# [27] = Toxicity in Amyloid beta (1 to 42)-treated ICR mouse assessed as body weight change at 10 mg/kg, po administered daily for 12 days; type: organism-based; conditions: in vivo, 288 h, time 12 day
# [28] = target: CYP2C9 (Homo sapiens, UniProt P11712); experiment: Inhibition of CYP2C9 in human liver microsomes at 10 uM in presence of NADPH-regenerating system by LC-MS/MS analysis relative to control; type: ADME, Microsome
# [29] = target: Cytochrome P450 3A4/3A5 (Homo sapiens, UniProt P08684+P20815); experiment: Inhibition of CYP3A4/CYP3A5 in human liver microsomes at 10 uM in presence of NADPH-regenerating system by LC-MS/MS analysis; type: ADME, Microsome
# [30] = test system: HT-22; experiment: Neuroprotective activity against glutamate-induced excitotoxicity in mouse HT-22 cells assessed as cell viability at 1 to 10 uM pretreated for 1 hr followed by glutamate addition measured after 24 hrs by MTT assay; type: functional, cell-based; conditions: dose 1-10 µM, time 25.0 hrs
# [31] = target: CYP2D6 (Homo sapiens, UniProt P10635); experiment: Inhibition of CYP2D6 in human liver microsomes at 10 uM in presence of NADPH-regenerating system by LC-MS/MS analysis relative to control; type: ADME, Microsome
# [32] = Cmax in Sprague-Dawley rat at 10 mg/kg, po measured for 1 to 1440 mins by LC-MS/MS analysis; type: ADME, organism-based; conditions: Sprague-Dawley, in vivo, time 1-1440 min, read-out: Cmax
# [33] = test system: PC-12; experiment: Neuroprotective activity in rat PC12 cells assessed as cell viability pretreated for 2 hrs followed by H2O2 addition measured after 24 hrs by MTT assay; type: functional, cell-based; conditions: time 26.0 hrs
# [34] = Cmax in plasma of ICR mouse at 10 mg/kg, po measured for 10 to 480 mins by spectroscopy; type: ADME, organism-based; conditions: time 10-480 min
# [35] = test system: PC-12; experiment: Cytotoxicity against rat PC12 cells assessed as survival rate at 100 uM incubated for 24 hrs by MTT assay relative to control; type: functional; conditions: read-out: Survival
# [36] = Tmax in Sprague-Dawley rat at 10 mg/kg, iv measured for 1 to 1440 mins by LC-MS/MS analysis; type: ADME, organism-based; conditions: in vivo, time 1-1440 min
# [37] = target: hERG (KCNH2) (Homo sapiens, UniProt Q12809); experiment: Inhibition of hERG at 10 uM by manual patch clamp assay relative to control; type: toxicity
# Chain of hERG (KCNH2) (Q12809 whole entry): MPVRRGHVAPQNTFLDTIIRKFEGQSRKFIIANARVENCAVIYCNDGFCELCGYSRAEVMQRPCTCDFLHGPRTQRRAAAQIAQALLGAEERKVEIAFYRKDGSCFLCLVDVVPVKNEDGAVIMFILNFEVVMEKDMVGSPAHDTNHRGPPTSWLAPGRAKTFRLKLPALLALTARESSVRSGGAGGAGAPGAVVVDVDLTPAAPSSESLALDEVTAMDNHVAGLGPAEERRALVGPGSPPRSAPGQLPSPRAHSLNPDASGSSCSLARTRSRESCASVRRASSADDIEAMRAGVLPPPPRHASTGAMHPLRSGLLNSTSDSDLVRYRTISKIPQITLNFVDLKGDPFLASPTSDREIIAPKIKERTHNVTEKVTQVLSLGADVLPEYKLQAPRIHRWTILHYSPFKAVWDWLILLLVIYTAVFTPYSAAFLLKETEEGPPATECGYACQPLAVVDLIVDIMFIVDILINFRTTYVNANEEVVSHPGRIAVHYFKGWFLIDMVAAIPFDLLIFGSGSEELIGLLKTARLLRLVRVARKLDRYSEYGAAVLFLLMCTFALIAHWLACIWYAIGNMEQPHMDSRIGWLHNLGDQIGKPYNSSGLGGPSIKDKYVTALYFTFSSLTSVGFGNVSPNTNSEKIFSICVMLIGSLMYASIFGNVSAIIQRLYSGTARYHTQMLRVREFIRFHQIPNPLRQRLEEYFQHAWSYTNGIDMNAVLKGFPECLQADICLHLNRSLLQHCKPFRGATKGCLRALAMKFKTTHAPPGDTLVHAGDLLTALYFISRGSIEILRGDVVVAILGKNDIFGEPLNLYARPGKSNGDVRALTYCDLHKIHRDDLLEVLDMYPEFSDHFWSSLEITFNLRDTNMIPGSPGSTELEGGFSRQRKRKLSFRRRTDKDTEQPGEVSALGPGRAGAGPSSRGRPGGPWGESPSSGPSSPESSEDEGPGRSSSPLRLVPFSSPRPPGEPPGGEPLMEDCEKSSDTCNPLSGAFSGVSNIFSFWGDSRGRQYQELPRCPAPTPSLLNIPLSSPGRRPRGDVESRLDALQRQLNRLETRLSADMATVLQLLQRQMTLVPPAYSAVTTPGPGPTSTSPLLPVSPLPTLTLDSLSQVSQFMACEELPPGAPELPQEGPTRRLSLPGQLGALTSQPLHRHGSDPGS
# Chain of Cholinesterase (P06276 whole entry): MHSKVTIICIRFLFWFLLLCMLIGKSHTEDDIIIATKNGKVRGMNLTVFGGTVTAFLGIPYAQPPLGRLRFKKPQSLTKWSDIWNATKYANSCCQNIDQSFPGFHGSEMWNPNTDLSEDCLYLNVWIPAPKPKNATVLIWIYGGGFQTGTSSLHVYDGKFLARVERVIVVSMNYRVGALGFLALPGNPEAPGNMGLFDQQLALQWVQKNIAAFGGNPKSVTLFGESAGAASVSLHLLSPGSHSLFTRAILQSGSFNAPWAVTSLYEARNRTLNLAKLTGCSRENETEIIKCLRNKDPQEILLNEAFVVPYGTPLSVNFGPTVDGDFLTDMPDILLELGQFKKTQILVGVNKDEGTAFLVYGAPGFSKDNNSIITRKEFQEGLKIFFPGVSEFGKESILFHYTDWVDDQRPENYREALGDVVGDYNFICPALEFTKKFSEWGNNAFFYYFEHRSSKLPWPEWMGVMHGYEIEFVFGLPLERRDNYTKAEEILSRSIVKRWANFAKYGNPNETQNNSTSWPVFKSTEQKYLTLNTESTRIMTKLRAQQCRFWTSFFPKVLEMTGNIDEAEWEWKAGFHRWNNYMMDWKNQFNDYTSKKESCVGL
# Chain of Amyloid-beta precursor protein (Mus musculus) (P12023 whole entry): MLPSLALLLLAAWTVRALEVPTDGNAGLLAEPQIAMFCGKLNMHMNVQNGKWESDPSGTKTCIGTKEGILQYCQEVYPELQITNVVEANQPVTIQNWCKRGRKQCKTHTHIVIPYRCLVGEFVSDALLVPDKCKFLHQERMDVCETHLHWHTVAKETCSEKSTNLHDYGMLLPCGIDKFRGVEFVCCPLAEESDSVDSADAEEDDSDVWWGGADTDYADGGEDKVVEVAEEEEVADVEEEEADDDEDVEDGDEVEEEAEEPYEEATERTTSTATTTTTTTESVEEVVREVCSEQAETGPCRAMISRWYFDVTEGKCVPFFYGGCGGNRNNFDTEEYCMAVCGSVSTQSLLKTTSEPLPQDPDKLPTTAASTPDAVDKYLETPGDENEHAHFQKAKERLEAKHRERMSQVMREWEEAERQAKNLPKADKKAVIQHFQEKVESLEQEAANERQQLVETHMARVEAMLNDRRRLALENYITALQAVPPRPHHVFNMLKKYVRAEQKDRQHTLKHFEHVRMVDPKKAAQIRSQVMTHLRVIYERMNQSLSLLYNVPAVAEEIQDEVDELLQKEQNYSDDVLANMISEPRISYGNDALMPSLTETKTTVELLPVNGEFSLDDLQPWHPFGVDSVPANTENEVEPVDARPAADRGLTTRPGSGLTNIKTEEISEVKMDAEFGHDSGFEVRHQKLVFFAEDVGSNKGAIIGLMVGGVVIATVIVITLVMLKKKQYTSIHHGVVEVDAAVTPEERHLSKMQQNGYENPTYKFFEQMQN
# Chain of CYP2C9 (P11712 whole entry): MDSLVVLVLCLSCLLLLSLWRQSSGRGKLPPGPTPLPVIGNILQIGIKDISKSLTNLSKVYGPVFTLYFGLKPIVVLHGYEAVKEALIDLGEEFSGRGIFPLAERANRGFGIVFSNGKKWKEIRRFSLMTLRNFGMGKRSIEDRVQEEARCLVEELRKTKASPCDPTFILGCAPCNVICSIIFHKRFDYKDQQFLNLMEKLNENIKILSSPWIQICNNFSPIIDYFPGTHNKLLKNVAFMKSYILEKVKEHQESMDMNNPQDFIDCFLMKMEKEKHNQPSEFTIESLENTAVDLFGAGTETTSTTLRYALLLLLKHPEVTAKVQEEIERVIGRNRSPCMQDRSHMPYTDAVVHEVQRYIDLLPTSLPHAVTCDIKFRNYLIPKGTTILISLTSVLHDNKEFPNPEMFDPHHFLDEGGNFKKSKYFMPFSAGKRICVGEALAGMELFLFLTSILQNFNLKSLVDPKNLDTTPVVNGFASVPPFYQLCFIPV
# Chain of CYP2D6 (P10635 whole entry): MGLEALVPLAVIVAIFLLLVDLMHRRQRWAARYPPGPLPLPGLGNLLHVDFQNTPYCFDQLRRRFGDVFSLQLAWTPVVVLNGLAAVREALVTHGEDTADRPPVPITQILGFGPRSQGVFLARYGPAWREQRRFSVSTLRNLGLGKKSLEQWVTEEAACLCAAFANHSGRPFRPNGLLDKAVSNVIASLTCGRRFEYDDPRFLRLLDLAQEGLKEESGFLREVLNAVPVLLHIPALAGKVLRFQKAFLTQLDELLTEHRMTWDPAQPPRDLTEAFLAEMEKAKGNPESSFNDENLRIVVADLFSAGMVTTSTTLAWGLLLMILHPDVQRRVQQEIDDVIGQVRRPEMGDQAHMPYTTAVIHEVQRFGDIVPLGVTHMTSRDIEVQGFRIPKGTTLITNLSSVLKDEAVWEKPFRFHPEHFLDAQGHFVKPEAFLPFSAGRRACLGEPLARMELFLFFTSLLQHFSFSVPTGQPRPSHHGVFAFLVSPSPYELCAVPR
smiles,measurement,setting,value
Nc1nonc1-c1nc2ccccc2n1CC(=O)Nc1ccc(CCN2CCOCC2)cc1,Activity,[1],Active
same,Kp,[2],0.32
same,MRT inf,[3],2.57 h
same,inhibition,[4],Active
same,AUC(0-t),[5],826 ng·h/mL
same,AUC(0-t),[6],3570 ng·h/mL
same,solubility at 24 h,[7],3.28 mM
same,"metabolised at 1 h, 2 µM",[8],< 15%
same,AUC(0-inf),[9],3590 ng·h/mL
same,"Papp at 18 h, 50 ug/ml",[10],6.64 ×10⁻⁶ cm/s
same,AUC(0-inf),[11],1730 ng·h/mL
same,AUC(0-t),[12],268 ng·h/mL
same,Kp,[13],0.15
same,Activity,[14],Dose-Dependent Effect
same,AUC(0-t),[15],1440 ng·h/mL
same,viability at 100 µM,[16],66.5%
same,Activity,[17],Non-Toxic
same,Tmax,[18],23.3 min
same,Cmax,[19],209 ng/mL
same,inhibition,[20],inactive
same,"viability at 24 h, 100 µM",[21],87.1%
same,Activity,[22],Non-Toxic
same,viability at 100 µM,[23],80.7%
same,Activity,[24],Active
same,half-life,[25],406 min
same,Activity,[26],Non-Toxic
same,Activity,[27],Non-Toxic
same,inhibition at 10 µM,[28],10.9%
same,inhibition (INH),[29],Not Active
same,Activity,[30],Active
same,inhibition at 10 µM,[31],0.89%
same,Cmax,[32],1060 ng/mL
same,Activity,[33],Dose-Dependent Effect
same,Cmax,[34],1390 ng/mL
same,viability at 100 µM,[35],75.5%
same,Tmax,[36],3 min
same,inhibition at 10 µM,[37],25.5%
